Results as given in article PMC6954215, “Structures of β-glycosidase LXYL-P1-2 reveals the product binding state of GH3 family and a specific pocket for Taxol recognition” (Communications Biology, 2020).

How the values were obtained:
[1] = molecular target: T1, LXYL-P1-2 (Lentinula edodes, UniProt G8GLP2, E529Q); test: X-ray crystallography, […] Å; assay type: binding; settings: co-crystallised with XDT, cleaved in crystal; product complex with xylose; 0.1 M Hepes pH 7.5, 16 °C
T1 construct: expressed in Pichia pastoris GS115 from pPIC3.5K-lxyl-p1-2; KEX2 cleavage after Arg35, mature N-terminus Asp36; endoglycosidase-treated for crystals; tetramer

[2] = molecular target: β-xylosidase/glucosidase LXYL-P1-2 (Lentinula edodes); test: SEC; molecular weight by gel filtration; conditions not given
[3] = molecular target: β-xylosidase/glucosidase LXYL-P1-2 (Lentinula edodes); test: crystal structure; native crystal, endoglycosidase-treated protein at 10 mg/ml, hanging drop at 16 °C, 13% PEG3350, 0.1 M Tris-HCl pH 8.5, 0.2% MgCl2; 2.4 Å; tetramer in the asymmetric unit

stoichiometry N [2] | stoichiometry N [3] | Compound | X-ray crystallography, 2.27 Å [1]
 |  | CC(=O)O[C@@]12CO[C@@H]1C[C@H](O)[C@@]1(C)C(=O)[C@H](O)C3=C(C)[C@@H](OC(=O)[C@H](O)[C@@H](NC(=O)c4ccccc4)c4ccccc4)C[C@@](O)([C@@H](OC(=O)c4ccccc4)[C@H]21)C3(C)C [10-deacetyltaxol] | The electron density clearly shows the existence of xylose and DT
 |  | OC1OC[C@@H](O)[C@H](O)[C@H]1O (stereo partly shown) [xylose] | The electron density clearly shows the existence of xylose and DT
4 | 4 | β-xylosidase/glucosidase LXYL-P1-2 (enzyme) | 
